US20260256733A1, “COMPOSITIONS AND METHODS FOR MODULATING STRESS AND USES THEREOF” (BRIGHTSEED, INC., priority 2023, published 2026)

Experiments:
mGlu2 [1] = molecular target: T1, mGlu2 (Homo sapiens, UniProt Q14416); assay: Standardized bioassay protocol, mGluR2 antagonist/NAM assay; type: cell-based; settings: for Activity Level: 20 μM, mGlu2 activity, control at 100%, greater than control indicates NAM or antagonist; for Bioactivity Class: assay performed at 20 μM
Protocol: (§1) A standardized bioassay protocol was followed as illustrated in FIG. 3. In the standardized bioassay protocol, an assay buffer of HBSS with 1% HEPES was used. Cells were seeded overnight at 10,000 cells/well in 20 μl plating reagent. Controls for the experiment were an agonist of L-glutamic acid (AC156212500), agonist of LY354740 (fisher part #: 32-465-0), antagonist of LY341495 (fisher part #: 12-095-0), PAM of BINA (fisher part #: 40-485-0), and NAM of (decoglurant (fisher part #: 50-203-0742).
(§2) The results are illustrated in Table 7 and FIGS. 4 and 5. FIG. 4 illustrates mGlu2 activity greater than control (dotted red line at 100%) is indicative of an mGlu2 negative allosteric modulator or antagonist. The assay was performed at 20 μM. FIG. 5 illustrates mGlu2 activity less than the control (at 100%) is indicative of a mGlu2 positive allosteric modulator or agonist. The assay was performed at 100 μM.

mGlu2 [2] = molecular target: T1, mGlu2; assay: Standardized bioassay protocol, mGluR2 agonist/PAM assay; type: cell-based; settings: for Activity Level: 100 μM, mGlu2 activity, control at 100%, less than control indicates PAM or agonist; for Bioactivity Class: assay performed at 100 μM
Protocol: as §1, §2

T1 sequence (Q14416 19-872): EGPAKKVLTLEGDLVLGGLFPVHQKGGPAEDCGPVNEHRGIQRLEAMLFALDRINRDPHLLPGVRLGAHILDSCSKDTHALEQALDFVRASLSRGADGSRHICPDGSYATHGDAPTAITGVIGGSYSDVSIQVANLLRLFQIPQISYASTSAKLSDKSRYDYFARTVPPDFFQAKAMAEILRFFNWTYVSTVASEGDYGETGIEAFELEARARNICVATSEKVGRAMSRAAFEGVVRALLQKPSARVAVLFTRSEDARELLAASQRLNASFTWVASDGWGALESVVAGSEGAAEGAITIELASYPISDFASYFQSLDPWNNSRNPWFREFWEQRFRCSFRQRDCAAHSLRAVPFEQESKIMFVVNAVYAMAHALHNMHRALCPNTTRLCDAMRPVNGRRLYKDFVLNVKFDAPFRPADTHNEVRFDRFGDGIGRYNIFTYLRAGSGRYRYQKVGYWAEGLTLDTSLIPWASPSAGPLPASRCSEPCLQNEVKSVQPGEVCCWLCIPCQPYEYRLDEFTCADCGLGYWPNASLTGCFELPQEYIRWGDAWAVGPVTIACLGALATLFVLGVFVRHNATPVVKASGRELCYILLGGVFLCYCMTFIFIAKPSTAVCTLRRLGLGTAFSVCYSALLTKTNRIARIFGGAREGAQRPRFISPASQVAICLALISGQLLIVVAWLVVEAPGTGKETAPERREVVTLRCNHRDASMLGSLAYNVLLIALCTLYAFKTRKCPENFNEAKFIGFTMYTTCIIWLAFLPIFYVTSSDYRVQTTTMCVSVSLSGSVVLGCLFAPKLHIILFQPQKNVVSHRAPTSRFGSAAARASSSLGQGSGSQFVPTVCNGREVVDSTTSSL

Structure (SMILES)	Activity Level (mGlu2 [1])	Bioactivity Class (mGlu2 [1])	Activity Level (mGlu2 [2])	Bioactivity Class (mGlu2 [2])
O=C1c2cccc(O)c2C(=O)C2C(O)=CC(CO)=CC12 (stereo not drawn) [Compound 4]	20 μM/191.200%	Antagonist/NAM	–	–
O=C1c2cccc(O)c2C(=O)c2c(O)cccc21 [Compound 6]	20 μM/142.558%	Antagonist/NAM	–	–
CC(=O)Oc1cccc2c1C(=O)c1c(OC(C)=O)cc(C(=O)O)cc1C2=O [Compound 7]	20 μM/195.543%	Antagonist/NAM	–	–
O=C(O)c1cc(O)c2c(c1)C(=O)c1cccc(O)c1C2=O [Compound 8]	20 μM/749.225%	Antagonist/NAM	–	–
COc1cc(O[C@@H]2O[C@H](CO)[C@@H](O)[C@H](O)[C@H]2O)c2c(O)c(C(C)=O)c(C)cc2c1 [Compound 9]	20 μM/107.501%	Antagonist/NAM	–	–
COC(=O)C1OC(=O)c2cc(O)c(O)c(O)c2C1C(CC(=O)O)C(=O)OC1C(COC(=O)c2ccc(O)c(O)c2)OC(OC(=O)c2cc(O)c(O)c(O)c2)C(O)C1OC(=O)c1cc(O)c(O)c(O)c1 (stereo not drawn) [Compound 12]	–	–	100 μM/25.688%	Agonist/PAM

Further lines, results first:

Activity Level (mGlu2 [1])	Bioactivity Class (mGlu2 [1])	Activity Level (mGlu2 [2])	Bioactivity Class (mGlu2 [2])	Structure (SMILES)
20 μM/152.609%	Antagonist/NAM	–	–	Cn1c(=O)[nH]c(=O)c2[nH]cnc21 [Compound 10]
20 μM/153.003%	Antagonist/NAM	–	–	Cn1cnc2c1c(=O)[nH]c(=O)n2C [Compound 11]
–	–	100 μM/9.870%	Agonist/PAM	Cc1cc(O)c2c(c1)C(=O)c1cc(O)cc(O)c1C2=O [Compound 13]
